The record followed here is ChEMBL document CHEMBL1151610, “Use of potato disc and brine shrimp bioassays to detect activity and isolate piceatannol as the antileukemic principle from the seeds of Euphorbia lagascae” (J Nat Prod, 1984).

As usually defined, the LC50 is the concentration that kills 50% of the test population.

≈ marks a conversion by molar mass, not a printed value. Calls of active or inactive are those of the source. The calls are words filed in the database; no cut-off is given here.

Series [1] in a line: Antitumor activity against mouse 3PS cells xenografted mouse assessed as increase in life span at 50 mg/kg. Type of series: functional.
Series [2] can be described thus: Antitumor activity against mouse 3PS cells xenografted mouse assessed as increase in life span at 12.5 mg/kg. Type of series: functional.
Series [3] can be described thus: Toxicity against brine shrimp. In kind it is organism-based. The note with it: artemia, in vivo.
The nature of series [4]: Antitumor activity against mouse 3PS cells xenografted mouse assessed as increase in life span at 25 mg/kg. In kind it is functional.
Series [5] relates to Agrobacterium tumefaciens. The series is described as follows: Antitumor activity against Agrobacterium tumefaciens-induced tumor formation at 10 ug/disk by potato disk assay. Type of series: functional.
The nature of series [6]: Antitumor activity against mouse 3PS cells xenografted mouse assessed as increase in life span at 3.62 mg/kg. In kind it is functional.
Series [7] in a line: Antitumor activity against mouse 3PS cells xenografted mouse assessed as increase in life span at 6.25 mg/kg. In kind it is functional.
Series [8] is described as follows: Cytotoxicity against mouse 9PS cells. Type of series: functional. Conditions: read-out: LC50 (the source's name).
The subject of series [9] is Mus musculus. The series is described as follows: Antitumor activity against mouse 3PS cells xenografted mouse assessed as increase in life span. Type of series: functional, cell-based.

As for `Oc1cc(O)cc(/C=C/c2ccc(O)c(O)c2)c1` [PICEATANNOL], the Activity in series [1] is recorded as 131%; in series [2], 118%; in [4], 123%; in series [5], -20%; in series [6], 109%; in [7], 114%. In series [3], this compound yielded an LC50 of 278 µg/mL (≈ 1140 µM). Besides, the CC50 in [8] was determined as 2.5 µg/mL (≈ 10.2 µM).
With `O=c1ccc2cc(O)c(O)cc2o1` [ESCULETIN], the LC50 in series [3] is over 1000 µg/mL. For the same compound, in series [5], the Activity is reported as -13%. In addition, the result in [9] was inactive. Moreover, in [8], the CC50 came to 3.9 µg/mL (≈ 21.9 µM).
